Patent US7306928B2, “Homogenous assay for enzymatic activity” (Pierce Biotechnology, Inc., priority 2002, dated 2007)

Legend:
PP2A Phosphatase = PP2A Phosphatase (Homo sapiens, UniProt P67775); assay: Okadaic acid PP2A phosphatase inhibition, Fe(III) fluorescence quench assay; format: biochemical; conditions: PP2A 22 milli Units, 30 μM Lissamine Rhodamine phospho Kemptide, 60 minutes, 96-well; read-out: calculated IC50
Source text: Okadaic Acid, another phosphatase inhibitor, solubilized in DMSO, was titrated in triplicate in phosphatase dilution buffer over 24 wells in white 96-well polystyrene COSTAR plate. […] The results are illustrated in FIG. 10.

[1] = target: PKA (protein kinase A) catalytic unit, Promega; assay: cell-based or functional assay

Chain of PP2A Phosphatase (P67775 whole entry): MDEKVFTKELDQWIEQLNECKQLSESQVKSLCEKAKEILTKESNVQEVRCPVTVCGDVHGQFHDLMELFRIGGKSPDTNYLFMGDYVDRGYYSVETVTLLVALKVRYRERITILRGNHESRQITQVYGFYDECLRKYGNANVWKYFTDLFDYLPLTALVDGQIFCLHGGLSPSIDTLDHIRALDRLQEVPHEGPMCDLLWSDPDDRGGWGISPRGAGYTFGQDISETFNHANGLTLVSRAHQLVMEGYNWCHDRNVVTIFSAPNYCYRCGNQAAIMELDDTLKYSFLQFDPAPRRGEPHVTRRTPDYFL

Row | IC50 of inhibition of PKA kinase activity (phosphorylation of Lissamine Rhodamine-labeled Kemptide, Fe(III) fluorescence quench readout) [1] | Compound | IC50 (PP2A Phosphatase)
1 | – | C=C1[C@@H](O)[C@@H]2O[C@]3(CC[C@H](/C=C/[C@@H](C)[C@@H]4CC(C)=C[C@@]5(O[C@H](C[C@@](C)(O)C(=O)O)CC[C@H]5O)O4)O3)CC[C@H]2O[C@@H]1[C@@H](O)C[C@H](C)[C@H]1O[C@@]2(CCCCO2)CC[C@H]1C [Okadaic Acid] | 1.5 nM
2 | 2.6 nM | PKI, a known synthetic peptide inhibitor of PKA | –
